Data as given in patent US9221814B2, “Heterocyclic guanidine F1F0-atpase inhibitors and therapeutic uses thereof” (Lycera Corporation, priority 2012, dated 2015).
Where two headings read alike, the source gives them in different places.

Assays:
Ramos cells = assay: Cytotoxicity in Ramos cells; format: cell-based; conditions: detection limit EC50=16 μM, read-out: Ramos Cell EC50
Procedure: (§1) Exemplary compounds described in above Examples were tested for activity against F1F0-ATPase by measuring the ability of the compounds to inhibit ATP synthesis. In addition, the compounds were assessed for cytotoxicity in Ramos cells. Inhibition of F1F0-ATPase activity in synthesizing ATP and cytotoxicity in Ramos cells were measured according to the procedures described in K. M. Johnson et al. Chemistry & Biology 2005, 12, 485-496.

F1F0-ATPase = target: T1, F1F0-ATPase (Bos taurus, UniProt P13621); assay: Inhibition of F1F0-ATPase activity in synthesizing ATP (ATP synthesis inhibition); format: biochemical; conditions: detection limit IC50=16 μM, read-out: ATP Syn IC50
T1 construct: from tissue
Procedure: as §1

SMILES	EC50 (Ramos cells; Homo sapiens) [µM]	IC50 (F1F0-ATPase) [µM]	EC50 (Ramos cells) [µM]
COCC(C)NC(=NC(=O)c1cc(C)nn1C)Nc1cc(-c2ccc(Cl)cc2)n[nH]1 (centres unmarked) [Compound A-67]	5 to 16	< 5	
Cc1cc(N/C(=N\C(=O)c2cc(C)oc2C(F)(F)F)NC(C)(C)C)[nH]n1 [Compound A-107]		> 16	> 16
Cn1cc(C(=O)/N=C(/Nc2cc(F)cc(Cl)c2)Nc2cc(-c3cc(O)ccc3Cl)n[nH]2)c(C(F)(F)F)n1 [Compound A-183]		< 5	5 to 16
Cc1oncc1C(=O)N=C(Nc1cc(-c2cc(F)cc(Cl)c2)n[nH]1)NC1CCCC1 [Compound A-97]	< 5	< 5	
Cc1ccc(-c2cc(N/C(=N\C(=O)c3cnoc3C)NC3CCC3)[nH]n2)cc1F [Compound A-94]		< 5	5 to 16
CCOC(=O)NC1CCC(N/C(=N/C(=O)c2cn(C)nc2C(F)(F)F)Nc2cc(F)cc(F)c2)CC1 (centres unmarked) [Compound A-217]	> 16	> 16	
Cn1cc(C(=O)/N=C(\Nc2n[nH]c3cncc(F)c23)NC(C)(C)C)c(C(F)(F)F)n1 [Compound A-141]		5 to 16	5 to 16
O=C(N=C(Nc1cc(F)cc(Cl)c1)Nc1cc(C(F)(F)F)n[nH]1)c1nccs1 [Compound A-34]	< 5	< 5	
Cc1cc(N/C(=N\C(=O)c2cc(C)oc2C(F)(F)F)NC(C)C)n[nH]1 [Compound A-112]		> 16	> 16
Cc1cc(N/C(=N\C(=O)c2cc(C)oc2C(F)(F)F)NCC(C)C)[nH]n1 [Compound A-109]		5 to 16	> 16
COc1ccc(-c2cc(N/C(=N\C(=O)c3cn(C)nc3C(F)(F)F)Nc3cccc(F)c3)[nH]n2)cc1F [Compound A-157]		< 5	5 to 16
Cc1oncc1C(=O)/N=C(/NCC(C)C)Nc1cc(-c2cc(F)cc(F)c2)n[nH]1 [Compound A-79]		> 16	> 16
CC(C)c1cc(C(=O)/N=C(\Nc2cc(-c3ccc(F)cc3)n[nH]2)NC(C)(C)C)on1 [Compound A-61]		< 5	< 5
Cc1cc(C(=O)/N=C(/Nc2cc(F)cc(Cl)c2)Nc2cc(C(F)(F)F)nn2C)on1 [Compound A-228]	< 5	< 5	
CC(C)N/C(=N/C(=O)c1cn(C)nc1C(F)(F)F)Nc1cc(-c2ccc(O)cc2F)n[nH]1 [Compound A-149]		> 16	> 16
CCOC(=O)NC1CCC(N/C(=N/C(=O)c2cn(C)nc2C(F)(F)F)NCc2ccc(Cl)c(F)c2)CC1 (centres unmarked) [Compound A-218]	5 to 16	> 16	
CCOC(=O)NC1CCC(N/C(=N\C(=O)c2cc(C)oc2C(F)(F)F)Nc2cc(F)cc(Cl)c2)CC1 (centres unmarked) [Compound A-127]	< 5	< 5	
Cn1cc(C(=O)/N=C(/Nc2cccc(O)c2)Nc2cc(-c3ccc(O)c(F)c3)n[nH]2)c(C(F)(F)F)n1 [Compound A-170]		5 to 16	< 5
CC(C)N/C(=N/C(=O)c1cc(C(C)C)no1)Nc1cc(-c2ccc(F)cc2)n[nH]1 [Compound A-63]		< 5	5 to 16
CCC(C)N/C(=N/C(=O)c1cnoc1C)Nc1cc(-c2cc(F)cc(Cl)c2)n[nH]1 (centres unmarked) [Compound A-101]		< 5	< 5

SMILES	EC50 (Ramos cells; Homo sapiens) [µM]	IC50 (F1F0-ATPase) [µM]	EC50 (Ramos cells) [µM]
COc1ccc(-c2cc(N/C(=N\C(=O)c3cn(C)nc3C(F)(F)F)Nc3cc(Cl)ccc3F)[nH]n2)cc1F [Compound A-160]		5 to 16	> 16
CSc1ccccc1N/C(=N\C(=O)c1cn(C)nc1C(F)(F)F)Nc1cc(-c2ccc(O)cc2F)n[nH]1 [Compound A-6]		5 to 16	< 5
COC[C@H](C)N/C(=N/C(=O)c1cc(C)on1)Nc1cc(-c2ccc(F)cc2)n[nH]1 [Compound A-52]		> 16	> 16
CCOC(=O)NC1CCC(N/C(=N\C(=O)c2cc(C)oc2C(F)(F)F)Nc2cc(OC)ccc2C)CC1 (centres unmarked) [Compound A-212]	5 to 16	< 5	
CC(C)N/C(=N/C(=O)c1cn(C)nc1C(F)(F)F)Nc1cc(-c2ccc(O)c(F)c2)n[nH]1 [Compound A-152]		5 to 16	5 to 16
Cc1cc(C(=O)/N=C(\Nc2cc(-c3cc(F)cc(F)c3)n[nH]2)NC2CCCC2)n(C)n1 [Compound A-82]		< 5	5 to 16
COC[C@H](C)N/C(=N/C(=O)c1cn(C)nc1C(F)(F)F)Nc1cc(-c2ccc(O)cc2F)n[nH]1 [Compound A-140]		> 16	> 16
COC[C@H](C)N/C(=N/C(=O)c1cnoc1C)Nc1cc(-c2cc(F)cc(F)c2)[nH]n1 [Compound A-80]		5 to 16	> 16
COc1ccc(-c2cc(N/C(=N\C(=O)c3cn(C)nc3C(F)(F)F)Nc3cccc(Cl)c3)[nH]n2)cc1F [Compound A-154]		< 5	> 16
COc1ccc(-c2cc(N/C(=N\C(=O)c3cn(C)nc3C(F)(F)F)Nc3ccccc3C(F)(F)F)[nH]n2)cc1F [Compound A-159]		5 to 16	> 16
COc1ccc(-c2cc(N/C(=N\C(=O)c3cn(C)nc3C(F)(F)F)Nc3ccc(C(C)(C)C)cc3)[nH]n2)cc1F [Compound A-148]		5 to 16	5 to 16
Cn1cc(C(=O)/N=C(/Nc2cc(F)cc(Cl)c2)Nc2cccc(O)n2)c(C(F)(F)F)n1 [Compound A-234]	< 5	< 5	
CC(C)(C)CN/C(=N/C(=O)c1ccc(Cl)s1)Nc1cc(C(F)(F)F)n[nH]1 [Compound A-208]		< 5	< 5
CCOC(=O)NC1CCC(N/C(=N\C(=O)c2cc(C)oc2C(F)(F)F)NCc2ccc(F)cc2Cl)CC1 (centres unmarked) [Compound A-126]	< 5	< 5	
CC(C)CNC(=NC(=O)c1cn(C)nc1C(F)(F)F)Nc1n[nH]c2cncc(F)c12 [Compound A-143]	5 to 16	> 16	
CCOC(=O)NC1CCC(N/C(=N\C(=O)c2cc(C)oc2C(F)(F)F)Nc2cc(Cl)ccc2OC)CC1 (centres unmarked) [Compound A-215]	5 to 16	< 5	
CCOC(=O)NC1CCC(N/C(=N/C(=O)c2cn(C)nc2C(F)(F)F)Nc2cc(F)cc(Cl)c2)CC1 (centres unmarked) [Compound A-219]	5 to 16	5 to 16	
COc1ccc(-c2cc(N/C(=N\C(=O)c3cn(C)nc3C(F)(F)F)NC3CCCC3)n[nH]2)cc1F [Compound A-129]		5 to 16	< 5
CC(C)CN/C(=N/C(=O)c1cn(C)nc1C(F)(F)F)Nc1n[nH]c2cc(F)ccc12 [Compound A-205]		> 16	> 16
CC(C)CN/C(=N/C(=O)c1cn(C)nc1C(F)(F)F)Nc1cc(-c2cc(O)ccc2F)n[nH]1 [Compound A-179]		< 5	> 16

SMILES	EC50 (Ramos cells; Homo sapiens) [µM]	IC50 (F1F0-ATPase) [µM]	EC50 (Ramos cells) [µM]
Cc1cc(C(=O)/N=C(/NCC(C)C)Nc2cc(-c3cc(F)cc(F)c3)[nH]n2)c(C(F)(F)F)o1 [Compound A-116]		< 5	< 5
CCC(C)N/C(=N\C(=O)c1cn(C)nc1C(F)(F)F)Nc1cc(-c2cc(F)cc(F)c2)n[nH]1 (centres unmarked) [Compound A-33]		< 5	< 5
COCC(C)NC(=NC(=O)c1cn(C)nc1C(F)(F)F)Nc1n[nH]c2cc(Cl)ccc12 (centres unmarked) [Compound A-202]		< 5	< 5
Cc1cc(C(=O)/N=C(\Nc2cc(-c3cc(F)cc(F)c3)[nH]n2)NC(C)C)c(C(F)(F)F)o1 [Compound A-117]		< 5	5 to 16
Cn1cc(C(=O)/N=C(\Nc2cc(-c3ccc(O)c(F)c3)n[nH]2)Nc2ccc(F)cc2F)c(C(F)(F)F)n1 [Compound A-169]		< 5	< 5
Cn1cc(C(=O)N=C(Nc2cc(-c3ccc(O)cc3F)n[nH]2)Nc2ccc(F)cc2F)c(C(F)(F)F)n1 [Compound A-4]	< 5	5 to 16	
CC(C)CN/C(=N/C(=O)c1cc(C(C)(C)C)nn1C)Nc1cc(-c2ccc(Cl)cc2)n[nH]1 [Compound A-73]		< 5	< 5
Cc1oncc1C(=O)/N=C(/NCC(C)C)Nc1cc(-c2ccc(Cl)cc2)n[nH]1 [Compound A-69]		> 16	> 16
CCn1nc(C)cc1C(=O)N=C(Nc1cc(-c2ccc(F)cc2)n[nH]1)NC(C)COC (centres unmarked) [Compound A-55]		5 to 16	5 to 16
Cn1cc(C(=O)/N=C(/Nc2cccc(F)c2)Nc2cc(-c3ccc(O)c(F)c3)n[nH]2)c(C(F)(F)F)n1 [Compound A-166]		< 5	< 5
COCC(C)NC(=NC(=O)c1cn(C)nc1C(F)(F)F)Nc1n[nH]c2cc(F)ccc12 (centres unmarked) [Compound A-207]		> 16	> 16
Cn1cc(C(=O)/N=C(/Nc2ccc(F)cc2)Nc2cc(-c3ccc(O)c(F)c3)n[nH]2)c(C(F)(F)F)n1 [Compound A-164]		< 5	< 5
COc1ccc(-c2cc(NC(=NC(=O)c3cn(C)nc3C(F)(F)F)NCC(C)(C)C)[nH]n2)cc1F [Compound A-130]	< 5	< 5	
Cc1oncc1C(=O)N=C(NCC(C)C)Nc1cc(-c2cc(F)cc(Cl)c2)n[nH]1 [Compound A-99]	5 to 16	< 5	
CC(C)(C)N/C(=N/C(=O)c1ccno1)Nc1cc(-c2ccc(F)cc2)n[nH]1 [Compound A-38]		5 to 16	5 to 16
Cc1cc(C(=O)/N=C(\Nc2ccc(C(F)(F)F)nc2)Nc2cc(F)cc(Cl)c2)on1 [Compound A-231]	< 5	< 5	
Cn1cc(C(=O)/N=C(/Nc2cc(F)cc(F)c2)Nc2cc(-c3ccc(O)c(F)c3)n[nH]2)c(C(F)(F)F)n1 [Compound A-174]		< 5	< 5
Cc1cc(C(=O)/N=C(\Nc2cc(-c3ccc(F)cc3)n[nH]2)NC(C)C)c(C(F)(F)F)o1 [Compound A-195]		< 5	5 to 16
